According to US7868135B2, “Compositions of lipopeptide antibiotic derivatives and methods of use thereof” (priority 2003, dated 2011):
Starred links: 1 amine or outer side, 2 acyl side, 3 side chain; linkers in the order of their positions; H or OH if unused. Positions of bridges follow the written chain, without caps; N, C: chain ends. Non-standard residues stand in square brackets, D forms with d. Residues, ends and D or L forms follow the SMILES beside them. ξ: configuration not given here. *: point of attachment. ξAbu(βξ-NH2) = CC(N[*:3])C(N[*:1])C(=O)[*:2]; ξAsp(βξ-Me) = CC(C(=O)O)C(N)C(=O)O; X2 = O=C(CCc1ccc(N[*:1])cc1)[*:2]; X1 = O=C(Cc1ccc(N[*:1])cc1)[*:2]; ξAbu(3ξ-NH2) = CC(N)C(N)C(=O)O; Lauroyl = CCCCCCCCCCCC(=O)*; Pip = O=C(O)[CH]1CCCCN1

Key:
[1] = system: Staphylococcus aureus (MSSA); details: 24 h
Method in brief: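 Broth microdilution MIC per NCCLS M7-A6 with doubling serial dilutions, in cation-adjusted Mueller-Hinton broth supplemented with 0.625 mM calcium.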

[2] = system: S. aureus Smith (SAU0017, ATCC 19636); experiment: Intraperitoneal murine model of protection against infection (ED50, Table 21); assay type: in vivo, Staphylococcus aureus; details: Swiss CD1 mice infected i.p., compound i.v.
Text: (§1) A variety of in vivo models may be used to assess the antimicrobial properties of lipopeptide derivative compounds of this disclosure. For example, antimicrobial compounds of the instant disclosure may be tested for efficacy by measuring a compound's ability to protect a mouse against a microbial infection, such as an infection or disease caused by or related to Gram-positive bacteria, including Staphylococcus aureus, Streptococcus pneumoniae, and Enterococcus faecalis. […] A certain period after infection, mice are then individually treated, for example intravenously (i.v.), with a lipopeptide derivative of this disclosure.
(§2) Antimicrobial lipopeptide derivatives of the instant invention were tested for antimicrobial activity against Gram-positive bacteria in an intraperitoneal (i.p.) murine model (i.e., bacteria were injected i.p. and lipopeptide compounds were administered intravenously (i.v.)). Mice were infected with Staphylococcus aureus, Streptococcus pneumoniae, or Enterococcus faecalis, which were prepared as follows: S. aureus Smith (SAU0017, ATCC 19636) were grown in culture overnight on trypticase soy broth, harvested and then resuspended in fresh media containing 5% mucin (Sigma Chemical Co.); S. pneumoniae (SPN 0032, ATCC 10813) were grown overnight on blood agar plates and re-suspended in 0.9% sterile saline; and E. faecalis EFS0040 (clinical isolate) were grown overnight in culture on blood heart infusion broth, washed and resuspended in 0.9% saline and mixed with equal volume of sterile fecal rat extract. Swiss CD1 mice were each infected i.p. with bacteria at the following doses: S. aureus at 10^6 CFU/mouse; S. pneumoniae at 10^2 CFU/mouse; or E. faecalis at 10^7.5 CFU/mouse. […] The ED50 for each compound was calculated using the method of Reed and Meunch (Am. J. Hyg. 27: 493, 1938).

[3] = Acute toxicity, maximum tolerated dose (MTD); details: Swiss CD1, mouse, in vivo, iv
Method: Another measure of toxicity is the maximum tolerated dose (MTD), which is determined as a dose level that is not accompanied by mortality or life-threatening toxicity. The dose ratio between toxic and therapeutic effect is the therapeutic index. […] The data obtained from these cell culture assays and animal studies can be used in formulating a dosage range that is not toxic for use in human subjects. […] The dosage may vary within this range depending upon the dosage form employed and the route of administration utilized. The exact formulation, route of administration and dosage can be chosen by the individual physician in view of the patient's condition or need thereof (see, e.g., Fingl et al., 1975, In: The Pharmacological Basis of Therapeutics, Chapter 1).
For example, to examine acute toxicity, lipopeptide antibiotics of the invention can be tested in an animal model, such as Swiss CD1 mice, to determine the MTD. In certain embodiments, the animals used to test toxicity of a particular compound can be approximately 5-6 weeks old at the start of the experiment and weigh 22-26 g. The lipopeptides may be administered intravenously (i.v.) into, for example, the caudal tail vein at dose levels that range from about 50 to about 500 mg/kg, or from about 75 to about 250 mg/kg, or from about 100 to about 200 mg/kg, or at a dose range at or below 100 mg/kg. The animals are generally observed immediately after administration, 1-2 hours post administration, 5-8 hours post administration, and once daily thereafter. Observations include both the activity level of the mouse as well as any physical side effects from the administered dose. The animal weight is recorded on day 0 (immediately before dosing) and on day 7.

[4] = In vivo half-life after single i.v. administration, mice; details: female, Swiss CD1, mouse, plasma, iv, 10 mg/kg
Method: (§3) Yet other exemplary in vivo models can be used to characterize the pharmacokinetics and pharmacodynamic parameters of antimicrobial compounds of this disclosure. Some parameters that can be measured include an in vivo half-life of a compound, elimination rate and clearance, volume of distribution, and bioavailability. For example, briefly, compounds can be administered as a single i.v. or oral (p.o.) dose in mice or rats. At various time points (ranging from 1 minute to 72 hours), blood from treated animals is collected and the concentration of lipopeptide derivative in the ex vivo plasma can be quantified by, for example, liquid chromatography with mass spectrometric detection (LC/MS). After quantification, pharmacokinetics parameters can be calculated using methods known in the art, such as a one compartment model with mono-exponential decay and linear regression analysis (see, e.g., Fantin et al., Antimicrob. Agents Chemotherap. 35: 1413. 1991).
(§4) A pharmacokinetic parameter that can be measured, and which aids in determining efficacy, after a single i.v. administration of an antimicrobial lipopeptide derivative of the instant disclosure is the systemic half-life of the compound. Briefly, test compounds were dissolved in a 5% mannitol solution (pH was then adjusted) to a concentration of 1 mg/mL (w/v). A single intravenous injection in the lateral caudal vein of Swiss CD1 mice (5 to 6 weeks old, female) or Sprague Dawley rats (male) was used to administer the lipopeptide derivative at a final dose of 10 mg/kg. At various time points (ranging from about 4 minutes to about 24 hours for mice, and 48 or 72 hours for rats) mice were sacrificed and blood was harvested. The concentration of lipopeptide derivative in ex vivo plasma was quantified using liquid chromatography (LC) with mass spectrometric detection (MS).

[5] = system: S. pneumoniae (SPN 0032, ATCC 10813); experiment: Intraperitoneal murine model of protection against infection (ED50, Table 21); assay type: in vivo, Streptococcus pneumoniae; details: Swiss CD1 mice infected i.p., compound i.v.
Text: as §1, §2

[6] = system: Streptococcus pneumoniae (SPN0002); experiment: Lung infection model in neutropenic mice; assay type: in vivo
Method: Antimicrobial lipopeptide derivatives of the instant invention were tested for antimicrobial activity against Gram-positive bacteria in an intranasal (i.n.), immunocomprimised murine lung infection model (i.e., bacteria were innoculated i.n. and lipopeptide compounds were administered i.v.). Streptococcus pneumoniae (SPN0002) were grown on 5% sheep blood agar plates for 24 h at 37° C., harvested and then resuspended in 0.9% saline. A group of three to four Swiss CD1 mice were rendered neutropenic by administration of cyclophosphamide (Sigma Chemical Co.; 150 mg/kg, i.p.) on day −4 and −1 before infection. At time −18 to −24 hours, each mouse was infected i.n. dropwise via the nares with 50 μl of the prepared bacterial inoculum (i.e., a dose of about 5×10^6 CFU/mouse). At 18 to 24 hours post-infection, the groups of mice received i.v. (1) a lipopeptide derivative formulated in a 5% D-mannitol solution at a dose of about 1 mg/kg, 3 mg/kg, 10 mg/kg, or 30 mg/kg; (2) the 5% mannitol vehicle alone at a dose volume of 10 mL/kg; or (3) a known antibiotic, such as ampicillin, at a similar dose as the lipopeptide compounds. At 18 to 24 hours post-antibiotic treatment, mice were sacrificed and lungs harvested. Lungs were sampled by spreading homogenates on blood agar plates and incubating for 24 h at 37° C., and then counting the number of CFU. The EKill (killing effect; i.e., log10 CFU/lung reduction as compared to CFU count at intial treatment time) and the EMax (maximum reduction effect; i.e., log10 CFU/lung reduction as compared to CFU count of control at 24 hours) for each compound was calculated.

[7] = system: E. faecalis EFS0040 (clinical isolate); experiment: Intraperitoneal murine model of protection against infection (ED50, Table 21); assay type: in vivo, Enterococcus faecalis; details: Swiss CD1 mice infected i.p., compound i.v.
Text: as §1, §2

Staphylococcus aureus = assay type: cell-based
Method: An exemplary pharmacokinetic parameter to aid in characterizing the properties of lipopeptide derivative compounds of the disclosure is post-antibiotic effect (PAE) of a lipopeptide derivative. For example, a bacterial culture with an initial count of 10^6 to 10^7 colony forming units per ml (CFU/ml) is treated with a certain concentration of lipopetide derivative for a certain time and a parallel (control) culture is left untreated. After treatment, the lipopetide derivative is removed from the culture (e.g., by dilution 1:1000 in fresh, lipopetide derivative-free medium), and the untreated culture is manipulated in the same way. Then the cultures are further incubated and monitored for bacterial growth over time. […] By way of background and not wishing to be bound by theory, a lipopeptide derivative having a measurable PAE activity will likely provide additional time for the host immune system to remove bacteria that might have survived antibiotic treatment and reproduced after the antibiotic is degraded, removed or filtered from the circulatory system. A longer PAE can influence the clinical outcome of antimicrobial therapy (i.e., a lower dose of a lipopetide derivative may be used to treat an infection or the frequency of a dosing regimen can be reduced).
After removal of the lipopeptide compounds, bacterial titre was determined each hour to monitor bacterial re-growth. The PAE duration is defined as the difference in time required for antimicrobial exposed bacterial cells versus unexposed bacterial cells to achieve an increase of 1 log10 unit in CFU/mL.

in vivo = details: male, Sprague Dawley, rat, plasma, iv, 10 mg/kg
Method: as §3, §4

Compound	MIC [1] [µg/mL]	ED50 in Mice, S. aureus (SAU0017) [2] [mg/kg]	MTD at 7 days [3] [mg/kg]	half-life [4] [h]	ED50 in Mice, S. pneumoniae (SPN0032) [5] [mg/kg]	also measured
CCCCCCCCCCCC(=O)Nc1ccc(CCC(=O)NC(CC(=O)O)C(=O)NC2C(=O)N3CCCCC3C(=O)NC(C(C)C(=O)O)C(=O)NC(CC(=O)O)C(=O)NCC(=O)NC(CC(=O)O)C(=O)NCC(=O)NC(C(C)N)C(=O)NC(C(C)C)C(=O)N3CCCC3C(=O)NC2C)cc1 (stereo not drawn) [Compound 108, C12-(p-Aminophenylpropanoyl)-Amphomycin] (Lauroyl-[X2]D[ξAbu(βξ-NH2)][Pip][ξAsp(βξ-Me)]DGDG[ξAbu(3ξ-NH2)]VP; lactam 3-C; configuration not given here)	0.5	6.5	50 to 200	4.55	–	–
aspartocin [reference compound]	–	5.4	–	–	0.65	–
CC1(C)S[C@@H]2[C@H](NC(=O)[C@H](N)c3ccccc3)C(=O)N2[C@H]1C(=O)O [ampicillin, reference compound]	–	–	–	–	–	EKill (log10 CFU/lung reduction versus count at initial treatment time) ([6]; 30 mg/kg i.v.): 1.8 log10 CFU/lung; log10 CFU/lung reduction (EMax, versus control at 24 hours) ([6]; highest dose level 30 mg/kg i.v.): 2.58 log10 CFU/lung; ED50 ([7]; Enterococcus faecalis, read-out: ED50 in Mice, E. faecalis (EFS0040)): 4.2 mg/kg
CC(=O)Nc1ccc(C(=O)NC(CC(=O)O)C(=O)NC2C(=O)N3CCCCC3C(=O)NC(C(C)C(=O)O)C(=O)NC(CC(=O)O)C(=O)NCC(=O)NC(CC(=O)O)C(=O)NCC(=O)NC(C(C)N)C(=O)NC(C(C)C)C(=O)N3CCCC3C(=O)NC2C)cc1 (centres unmarked) [Compound 85, C2-PABA-Amphomycin]	2 to 4	6.5	50 to 200	5.17	–	ED50 in Mice, E. faecalis (EFS0040) [7]: 5.7 mg/kg
amphomycin [reference compound]	–	5.4	–	–	2.0	–
CCCCCCCCCCCCCCC(=O)NC(CC(=O)O)C(=O)NC1C(=O)N2CCCCC2C(=O)NC(C(C)C(=O)O)C(=O)NC(CC(=O)O)C(=O)NCC(=O)NC(CC(=O)O)C(=O)NCC(=O)NC(C(C)NC(=O)CN)C(=O)NC(C(C)C)C(=O)N2CCCC2C(=O)NC1C (centres unmarked) [Compound 3, C15-Amphomycin-9-Gly]	–	4.9	50 to 200	6.65	1.3	–
CCCCCCCCCCCCCCNC(=O)NC(CC(=O)O)C(=O)NC1C(=O)N2CCCCC2C(=O)NC(C(C)C(=O)O)C(=O)NC(CC(=O)O)C(=O)NCC(=O)NC(CC(=O)O)C(=O)NCC(=O)NC(C(C)NC(=O)CCN)C(=O)NC(C(C)C)C(=O)N2CCCC2C(=O)NC1C (stereo not drawn) [Compound 278, CH3—(CH2)13—NH—C(═O)-Amphomycin-9-(β-Ala)]	0.5	7.1	200 to 400	7.45	–	MIC used for the PAE experiment (Staphylococcus aureus): 2 µg/mL; Post Antibiotic Effect (hours) 0.5 × MIC (Staphylococcus aureus; exposure one hour at 0.5 × MIC, S. aureus log phase): 1.5 h; Post Antibiotic Effect (hours) 1 × MIC (Staphylococcus aureus; exposure one hour at 1 × MIC): 2.6 h; Post Antibiotic Effect (hours) 2 × MIC (Staphylococcus aureus; exposure one hour at 2 × MIC): 2.2 h; Post Antibiotic Effect (hours) 4 × MIC (Staphylococcus aureus; exposure one hour at 4 × MIC): 3.2 h; ED50 in Mice, E. faecalis (EFS0040) [7]: 5.3 mg/kg; half-life (in vivo): 7.08 h
CCCCCCCCCCCC(=O)Nc1ccc(CC(=O)NC(CC(=O)O)C(=O)NC2C(=O)N3CCCCC3C(=O)NC(C(C)C(=O)O)C(=O)NC(CC(=O)O)C(=O)NCC(=O)NC(CC(=O)O)C(=O)NCC(=O)NC(C(C)N)C(=O)NC(C(C)C)C(=O)N3CCCC3C(=O)NC2C)cc1 (stereo not drawn) [Compound 119, C12-(p-Apa)-Amphomycin] (Lauroyl-[X1]D[ξAbu(βξ-NH2)][Pip][ξAsp(βξ-Me)]DGDG[ξAbu(3ξ-NH2)]VP; lactam 3-C; configuration not given here)	0.25	7.6	50 to 200	4.22	–	–
